Measurements taken from patent US8541411B2, “Benzimidazole derivatives as PI3 kinase inhibitors” (GlaxoSmithKline LLC, priority 2010, dated 2013).

Target: T1, PI3Kβ (Homo sapiens, UniProt P42338)
T1 construct: made in house
Test: HTRF in vitro profiling assay for PI3K inhibition, beta isoform
Format: biochemical
Settings: one experimental run or average of two or more runs; 200 pM enzyme, 100 uM ATP, 10 uM PIP2; read-out: P13KB PIC50 MEAN (converted)
Source text: The PI3-Kinase profiling assays were developed to measure the compound-dependent inhibition of the alpha, beta, delta, and gamma isoforms of PI3K in an in vitro catalytic assay. This assay was developed and optimized from a kit produced by Upstate (Millipore catalog #33-017). Briefly, this procedure utilizes a pre-formed HTRF (Homogeneous Time-Resolved Fluorescence energy transfer) complex between four binding partners: 1) biotinylated PIP3, 2) GST tagged pleckstrin homology (PH) domain, 3) Europium labeled anti-GST monoclonal antibody, and 4) Streptavidin-Allophycocyanin (APC). The native PIP3 produced by PI 3-Kinase activity displaces biotin-PIP3 from the PH domain, resulting in the dissociation of the HTRF complex and a decrease in the fluorescence signal. The format of this assay is the same for all 4 isoforms of PI3K; the differences lie in the concentration of enzyme used to achieve the most robust signal. The alpha and delta assays are run at 400 pM enzyme; the beta assay is at 200 pM enzyme and the gamma assay is run at 1 nM enzyme. In addition, the alpha, beta and delta assays are run with 150 mM NaCl while the gamma assay is run in the absence of NaCl. The ATP concentration is 100 uM in the alpha, beta, and delta assays and 15 uM ATP in the gamma assay. All reactions are run at 10 uM PIP2
Compounds were serially diluted (3-fold in 100% DMSO) across a 384-well polypropylene mother plate from column 1 to column 12 and column 13 to column 24, to yield 11 concentrations for each test compound. Columns 6 and 18 contain only DMSO. Once titrations were made, 0.05 μL was transferred to a 384-well low-volume assay plate (Greiner 784076). This assay plate contained three pharmacological controls (known PI3K inhibitors) and 3 assay controls: (1) Enzyme without inhibitor; (2) Buffer minus enzyme, and (3) Buffer minus enzyme plus native PIP3. DMSO was stamped into all wells of columns 6 and 18. PIP3 was added at 40 μM in 1× Reaction buffer (1 μL of 200 μM PIP3) to alternating rows of column 18 (wells 18 B, D, F, H, J, L, N, P). The no-enzyme control reactions were run in wells 18 A, C, E, G, I, K, M, O (0.1 μL of 100% DMSO).
The PI3-Kinase profiling assay was optimized using the HTRF kit provided by Upstate (Millipore). The assay kit contained seven reagents: 1) 4× Reaction Buffer; 2) native PIP2 (substrate); 3) Stop A (EDTA); 4) Stop B (Biotin-PIP3); 5) Detection Mix A (Streptavidin-APC); 6) Detection Mix B (Eu-labeled Anti-GST plus GST-tagged PH-domain); 7) Detection Mix C (KF). In addition, the following items were obtained or purchased: PI3Kinase (prepared by GSK BR&AD), dithiothreitol (Sigma, D-5545), Adenosine-5′-triphosphate (ATP, Teknova cat. #A0220), native PIP3 (1,2-dioctanoyl-sn-glycero-3-[phosphoinositil-3,4,5-triphosphate]tetraammonium salt (Avanti polar lipids, 850186P), DMSO (Sigma, 472301).
PI3Kinase Reaction Buffer was prepared by diluting the stock 1:4 with de-ionized water. Freshly prepared DTT was added at a final concentration of 5 mM on the day of use. Enzyme addition and compound pre-incubation were initiated by the addition of 2.5 μL of PI3K (at twice its final concentration) in 1× reaction buffer to all wells using a Multidrop Combi. Plates were incubated at room temperature for 15 minutes. Reactions were initiated by addition of 2.5 μL of 2× substrate solution (PIP2 and ATP in 1× reaction buffer) using a Multidrop Combi. Plates were incubated at room temperature for one hour. Reactions were quenched by the addition of 2.5 μL of stop solution (Stop A and Stop B pre-mixed at a ratio of 5:1, respectively) to all wells using the Multidrop Combi.

T1 sequence (P42338 whole entry): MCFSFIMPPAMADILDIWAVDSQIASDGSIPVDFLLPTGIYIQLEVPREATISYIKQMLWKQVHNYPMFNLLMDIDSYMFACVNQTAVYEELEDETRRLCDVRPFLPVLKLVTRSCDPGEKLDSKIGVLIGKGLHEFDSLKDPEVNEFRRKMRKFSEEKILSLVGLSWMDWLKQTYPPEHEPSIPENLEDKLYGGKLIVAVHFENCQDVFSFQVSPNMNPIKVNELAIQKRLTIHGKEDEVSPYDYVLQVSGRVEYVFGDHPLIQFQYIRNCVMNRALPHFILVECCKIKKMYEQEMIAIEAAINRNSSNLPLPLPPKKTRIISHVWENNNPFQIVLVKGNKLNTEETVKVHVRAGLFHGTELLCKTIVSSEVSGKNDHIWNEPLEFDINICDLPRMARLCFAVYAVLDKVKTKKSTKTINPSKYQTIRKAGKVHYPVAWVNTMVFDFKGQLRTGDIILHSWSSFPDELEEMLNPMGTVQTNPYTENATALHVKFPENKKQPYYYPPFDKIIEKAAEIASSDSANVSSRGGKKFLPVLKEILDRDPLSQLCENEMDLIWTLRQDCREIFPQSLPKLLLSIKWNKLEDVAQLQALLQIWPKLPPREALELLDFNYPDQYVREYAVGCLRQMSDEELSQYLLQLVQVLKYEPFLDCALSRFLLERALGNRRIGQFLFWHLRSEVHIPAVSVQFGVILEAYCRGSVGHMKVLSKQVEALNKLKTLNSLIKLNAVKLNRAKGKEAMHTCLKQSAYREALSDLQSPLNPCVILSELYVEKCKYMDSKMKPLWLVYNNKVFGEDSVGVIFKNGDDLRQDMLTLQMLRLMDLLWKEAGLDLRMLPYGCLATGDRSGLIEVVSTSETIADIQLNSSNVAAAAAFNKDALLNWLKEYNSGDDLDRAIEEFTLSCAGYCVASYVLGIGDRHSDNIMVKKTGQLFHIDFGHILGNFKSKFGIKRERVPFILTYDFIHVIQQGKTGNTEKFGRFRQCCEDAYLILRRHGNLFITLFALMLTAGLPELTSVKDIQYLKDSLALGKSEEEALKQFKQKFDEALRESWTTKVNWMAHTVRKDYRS
T1 sequence (P27986 whole entry partner): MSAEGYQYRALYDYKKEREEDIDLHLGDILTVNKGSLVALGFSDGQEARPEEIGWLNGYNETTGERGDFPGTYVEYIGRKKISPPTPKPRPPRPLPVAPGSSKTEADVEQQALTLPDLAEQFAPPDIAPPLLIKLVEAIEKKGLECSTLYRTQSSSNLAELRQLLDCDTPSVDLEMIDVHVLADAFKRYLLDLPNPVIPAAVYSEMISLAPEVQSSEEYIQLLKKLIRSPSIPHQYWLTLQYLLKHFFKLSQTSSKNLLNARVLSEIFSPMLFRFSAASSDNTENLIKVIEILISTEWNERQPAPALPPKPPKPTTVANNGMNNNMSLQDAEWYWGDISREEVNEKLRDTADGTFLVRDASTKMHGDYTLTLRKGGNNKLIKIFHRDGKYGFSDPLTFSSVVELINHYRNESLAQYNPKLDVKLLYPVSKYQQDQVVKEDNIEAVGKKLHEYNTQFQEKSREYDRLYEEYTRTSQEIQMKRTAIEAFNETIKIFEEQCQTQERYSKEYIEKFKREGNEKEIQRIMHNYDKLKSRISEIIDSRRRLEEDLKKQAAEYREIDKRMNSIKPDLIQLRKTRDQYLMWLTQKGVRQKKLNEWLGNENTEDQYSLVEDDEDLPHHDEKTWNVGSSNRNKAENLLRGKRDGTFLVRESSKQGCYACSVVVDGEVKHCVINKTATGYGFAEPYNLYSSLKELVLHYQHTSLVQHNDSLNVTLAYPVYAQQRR

Row | SMILES | IC50 [nM]
1 | CC(=O)Nc1cc(N2CCOCC2)cc2c1nc(C)n2Cc1cccc2ccccc12 [Example 3, N-(2-Methyl-6-morpholin-4-yl-1-naphthalen-1-ylmethyl-1H-benzoimidazol-4-yl)-acetamide] | 200
2 | Cc1nc2c(O)cc(N3CCOCC3)cc2n1Cc1cccc2ccccc12 [Example 5, 2-methyl-6-(4-morpholinyl)-1-(1-naphthalenylmethyl)-1H-benzimidazol-4-ol] | 1.58
3 | CC(C)c1nc2c(O)cc(N3CCOCC3)cc2n1Cc1cccc2ccccc12 [Example 11, 2-(1-methylethyl)-6-(4-morpholinyl)-1-(1-naphthalenylmethyl)-1H-benzimidazol-4-ol] | 2
4 | CC(C)c1nc2c(O)cc(N3CCOCC3)cc2n1Cc1cccc(Cl)c1Cl [Example 13, 1-[(2,3-dichlorophenyl)methyl]-2-(1-methylethyl)-6-(4-morpholinyl)-1H-benzimidazol-4-ol] | 7.94
5 | CCc1nc2c(O)cc(N3CCOCC3)cc2n1Cc1cccc(Cl)c1Cl [Example 14, 1-[(2,3-dichlorophenyl)methyl]-2-ethyl-6-(4-morpholinyl)-1H-benzimidazol-4-ol] | 3.16
6 | Cc1nc2c(F)cc(N3CCOCC3)cc2n1Cc1cccc2ccccc12 [Example 15, 4-fluoro-2-methyl-6-(4-morpholinyl)-1-(1-naphthalenylmethyl)-1H-benzimidazole] | 1
7 | CCc1nc2c(F)cc(N3CCOCC3)cc2n1Cc1cccc2ccccc12 [Example 17, 2-ethyl-4-fluoro-6-(4-morpholinyl)-1-(1-naphthalenylmethyl)-1H-benzimidazole] | 2.51
8 | CCc1nc2c(F)cc(N3CCOCC3)cc2n1Cc1cccc(Cl)c1Cl [Example 18, 1-[(2,3-dichlorophenyl)methyl]-2-ethyl-4-fluoro-6-(4-morpholinyl)-1H-benzimidazole] | 10
9 | Cc1nc2c(C(=O)O)cc(N3CCOCC3)cc2n1Cc1cccc2ccccc12 [Example 20, 2-methyl-6-(4-morpholinyl)-1-(1-naphthalenylmethyl)-1H-benzimidazole-4-carboxylic acid] | 6.31
10 | Cc1nc2c(C(=O)O)cc(N3CCOCC3)cc2n1Cc1cccc(Cl)c1Cl [Example 22, 1-[(2,3-dichlorophenyl)methyl]-2-methyl-6-(4-morpholinyl)-1H-benzimidazole-4-carboxylic acid] | 15.8
11 | Cc1nc2c(-c3nnc[nH]3)cc(N3CCOCC3)cc2n1Cc1cccc2ccccc12 [Example 25, 2-methyl-6-(4-morpholinyl)-1-(1-naphthalenylmethyl)-4-(1H-1,2,4-triazol-3-yl)-1H-benzimidazole] | 0.251
12 | Cc1nc2c(C#N)cc(N3CCOCC3)cc2n1Cc1cccc(Cl)c1Cl [Example 32, 1-[(2,3-dichlorophenyl)methyl]-2-methyl-6-(4-morpholinyl)-1H-benzimidazole-4-carbonitrile] | 12.6
13 | Cc1nc2c(C(=O)O)cc(N3CCOCC3)cc2n1Cc1cccc2cccnc12 [Example 35, 2-methyl-6-(4-morpholinyl)-1-(8-quinolinylmethyl)-1H-benzimidazole-4-carboxylic acid] | 63.1
14 | Cc1nc2c(C(=O)O)cc(N3CCOCC3)cc2n1Cc1ccc(Cl)c(Cl)c1 [Example 38, 1-[(3,4-dichlorophenyl)methyl]-2-methyl-6-(4-morpholinyl)-1H-benzimidazole-4-carboxylic acid] | 100
15 | Cc1c(Cn2c(C)nc3c(-c4nnc[nH]4)cc(N4CCOCC4)cc32)cccc1C(F)(F)F [Example 39, 2-methyl-1-{[2-methyl-3-(trifluoromethyl)phenyl]methyl}-6-(4-morpholinyl)-4-(1H-1,2,4-triazol-3-yl)-1H-benzimidazole] | 0.631
16 | CC(=O)c1cc(N2CCOCC2)cc2c1nc(C)n2Cc1cccc2ccccc12 [Example 41, 1-[2-methyl-6-(4-morpholinyl)-1-(1-naphthalenylmethyl)-1H-benzimidazol-4-yl]ethanone] | 1.58
17 | Cc1c(Cn2c(C)nc3c(CO)cc(N4CCOCC4)cc32)cccc1C(F)(F)F [Example 43, [2-methyl-1-{[2-methyl-3-(trifluoromethyl)phenyl]methyl}-6-(4-morpholinyl)-1H-benzimidazol-4-yl]methanol] | 5.01

Results, then the molecule that gave them:

Row | IC50 [nM] | SMILES
18 | 1.26 | O=C(O)c1cc(N2CCOCC2)cc2c1nc(C(F)(F)F)n2Cc1cccc2ccccc12 [Example 50, 6-(4-morpholinyl)-1-(1-naphthalenylmethyl)-2-(trifluoromethyl)-1H-benzimidazole-4-carboxylic acid]
19 | 0.501 | Cc1c(Cl)cccc1Cn1c(C(F)(F)F)nc2c(C(=O)O)cc(N3CCOCC3)cc21 [Example 53, 1-[(3-chloro-2-methylphenyl)methyl]-6-(4-morpholinyl)-2-(trifluoromethyl)-1H-benzimidazole-4-carboxylic acid]
20 | 2.51 | Cc1c(Cn2c(C(F)(F)F)nc3c(C(N)=O)cc(N4CCOCC4)cc32)cccc1C(F)(F)F [Example 54, 1-{[2-methyl-3-(trifluoromethyl)phenyl]methyl}-6-(4-morpholinyl)-2-(trifluoromethyl)-1H-benzimidazole-4-carboxamide]
21 | 6.31 | Cc1nc2c(-c3nnn[nH]3)cc(N3CCOCC3)cc2n1Cc1cccc2ccccc12 [Example 58, 2-methyl-6-(4-morpholinyl)-1-(1-naphthalenylmethyl)-4-(1H-tetrazol-5-yl)-1H-benzimidazole]
22 | 6.31 | Cc1c(Cl)cccc1Cn1c(C)nc2c(C(=O)O)cc(N3CCOCC3)cc21 [Example 59, 1-[(3-chloro-2-methylphenyl)methyl]-2-methyl-6-(4-morpholinyl)-1H-benzimidazole-4-carboxylic acid]
23 | 1 | Cc1c(Cn2c(C)nc3c(Br)cc(N4CCOCC4)cc32)cccc1C(F)(F)F [Example 63, 4-bromo-2-methyl-1-{[2-methyl-3-(trifluoromethyl)phenyl]methyl}-6-(4-morpholinyl)-1H-benzimidazole]
24 | 0.2 | Cc1c(Cn2c(C(F)F)nc3c(C(=O)O)cc(N4CCOCC4)cc32)cccc1C(F)(F)F [Example 70, 2-(difluoromethyl)-1-{[2-methyl-3-(trifluoromethyl)phenyl]methyl}-6-(4-morpholinyl)-1H-benzimidazole-4-carboxylic acid]
25 | 1.58 | Cc1c(Cl)cccc1Cn1c(C(F)F)nc2c(C(=O)O)cc(N3CCOCC3)cc21 [Example 72, 1-[(3-chloro-2-methylphenyl)methyl]-2-(difluoromethyl)-6-(4-morpholinyl)-1H-benzimidazole-4-carboxylic acid]
26 | 25.1 | Cc1nc2c(C(=O)O)cc(N3CCOCC3)cc2n1Cc1cccc2ccsc12 [Example 73, 1-(1-benzothien-7-ylmethyl)-2-methyl-6-(4-morpholinyl)-1H-benzimidazole-4-carboxylic acid]
